Laboratory results published in patent EP2966448B1, “METHOD FOR THE PREDICTION OR PROGNOSIS OF THE RESPONSE OF A HUMAN SUBJECT SUFFERING FROM CANCER TO TREATMENT WITH AN ANTAGONIST OF THE NK1 RECEPTOR” (priority 2013, dated 2014).
Where two headings read alike, the source gives them in different places.

What was measured:
[1] = system: Breast carcinoma; experiment: Inhibition of primary tumor cell cultures (48 hours) vs NK1 receptor immunostaining (Example 1); format: cell-based; details: Homo sapiens, NK1 receptor immunostaining Intensity grade 3; 1 micromolar; read-out: Percentage of inhibition of cell cultures
[2] = system: Breast carcinoma (ductal adenocarcinoma); experiment: Inhibition of primary tumor cell cultures vs Kras mutation (Example 2); format: cell-based, human; details: Homo sapiens, 100 micromolar, read-out: Percentage of inhibition of cell cultures
Method: (§1) Cell cultures. […] Briefly, small pieces of the tumors were digested into a hyaluronidase solution (Sigma-Aldrich, USA) at a concentration of 1 mg/ml during 15 minutes at 37°C, and then they were treated with 6 mg/ml of collagenase type IV (Invitrogen) during 2 hours at 37°C. Consecutively, cells were washed, and resuspended in the DMEM culture medium with high concentration of glucose (Dulbecco's Modified Eagle's Medium, Invitrogen) supplemented with 1% of antibiotics-antimycotics (Invitrogen) and with 1% of sodium pyruvate (Invitrogen), and the cells were seeded in culture slides at a concentration of 10.000 cells per square centimeter. When cells reached confluence, the adherent cells were separated using sterile trypsin at 0,5% (Invitrogen) and they were used among passages 3 and 9. For the assays shown next, tumor cells were seeded on slides at a concentration of 25.000 cells per well. A total of 6 wells containing the tumor cells were used as survival control. […] All the cultures were kept during 48 hours and later on recollected for their analysis.
(§2) In each case the presence or not of mutations in K-ras gene was determined.
(§3) To determine the existence of mutations in the K-ras gene DNA from cancer tumor cells was extracted from samples obtained from the different cancer tumor cells, using DNA extraction kits from Takara (Madison, WI, US) or Ambion (Huntingdon, Cambridgeshire, United Kingdom), following the manufacturer's instructions, and as it has been previously published (Di Fiore F, et al. 2007). Consecutively it was analyzed by sequencing the exon 2 of the KRAS gene, , by means of PCR amplification from previously extracted cancer tumor DNA, using the following sense primer (SEQ ID NO. 15): 5'-[sequence]-3' and anti-sense primer (SEQ ID NO. 16): 5'-[sequence]-3'. After the purification using the Qiagen extraction kit, the PCR products were sequenced using the Big Dye Terminator Kit V3.1 (Applied Biosystems, Foster City, CA, U.S.) and an ABI Prism 377 or 3100 DNA sequencer (Applied Biosystems). The presence of a heterozygous mutation in the KRAS gene in cancer tumor cells of the cultures was defined as the appearance of a mutant peak of a height of at least a third of the wild type. All the sequence analysis were executed at least twice in two independent PCR.
(§4) The antibody against NK1 receptor (Table 16) was used at 1/50 concentration. The percentages of inhibition are expressed in percentage of variation in relation to control ± standard deviation.

[3] = system: Thyroid carcinoma (papillary type); experiment: Inhibition of primary tumor cell cultures (48 hours) vs NK1 receptor immunostaining (Example 1); format: cell-based; details: Homo sapiens, 1 micromolar, read-out: Percentage of inhibition of cell cultures
Method: (§5) Cell cultures. To obtain tumor cells from human primary tumors we used the method described in De Bari et al. (De Bari et al. 2001). Briefly, small pieces of the tumors were digested into a hyaluronidase solution (Sigma-Aldrich, USA) at a concentration of 1 mg/ml during 15 minutes at 37°C, and then they were treated with 6 mg/ml of collagenase type IV (Invitrogen) during 2 hours at 37°C. Consecutively, cells were washed, and resuspended in the DMEM culture medium with high concentration of glucose (Dulbecco's Modified Eagle's Medium, Invitrogen) supplemented with 1% of antibiotics-antimycotics (Invitrogen) and with 1% of sodium pyruvate (Invitrogen), and the cells were seeded in culture slides at a concentration of 10.000 cells per square centimeter. When cells reached confluence, the adherent cells were separated using sterile trypsin at 0,5% (Invitrogen) and they were used among passages 3 and 9. For the assays shown next, tumor cells were seeded on slides at a concentration of 25.000 cells per well. A total of 6 wells containing the tumor cells were used as survival control. […] All the cultures were kept during 48 hours and later on recollected for their analysis.
(§6) Immunohistochemistry techniques. The presence of NK1 receptors was also analyzed using immunohistochemistry techniques. Briefly, a sample of each of the cultures of the cell lines used in the present invention, was centrifuged (5 minutes at 1.500 rpm) and the pellet obtained was dehydrated using increasing concentrations of ethanol and, finally, xylol. Then, said dehydrated samples were embedded in paraffin, creating a block of cells. Such paraffin blocks were cut with a microtome at 5 microns thickness, and were placed on microscope slides adequate to perform immunohistochemistry techniques. Consecutively, they were de-paraffinized by immersing them in xylol, to be finally hydrated using a solution containing decreasing concentrations of ethanol, and finally submerged them into water. […] After this, the samples were left to cool down at room temperature for 10 minutes. The endogenous peroxidase activity was blocked with 3% peroxide of hydrogen for 30 minutes at room temperature. After washing the samples with 0.05 M of Tris buffer, they were incubated with 10% non-immune pork serum at for 30 minutes at room temperature. To analyze the expression of NK1 receptors, the cellular samples were incubated in the presence of anti-NK1 antibodies (S8305, Sigma-Aldrich) diluted 1:1000, overnight at 4°C. Afterwards, the samples were washed in Tris buffer 0.05 M at room temperature. The next step was the addition of Envision System-HRP (Dako) reagents for 30 minutes at room temperature. Then, the samples were washed again in Tris buffer 0.05 M and the immunoreactivity was visualized through light microscopy with a chromogenic solution containing 3,3'-Diaminobenzidine (DAB+; Dako, USA). To differentiate the cell nuclei, they were slightly stained with hematoxylin. As negative control, it was used samples not incubated with the primary antibody anti-NK1, which was replaced by non-immune serum. All the samples were evaluated.
(§7) To value the immunostaining in each of the cases six cuts were performed to be analyzed by the immunohistochemistry technique. In each of the six cuts, it was counted cells in 20 fields (magnification 400x) using an Olympus microscope (model CX31). In each field it was counted the total number of cells and the number of cells presenting immunostaining, calculating afterwards the percentage of cells which presented immunostaining.

[4] = system: human primary tumor cells; experiment: Inhibition of primary tumor cell cultures vs absence or presence of AKT protein (Example 4; tumor type per table line); format: cell-based; details: cancer cell cultures showing more presence of AKT, compared; non-peptidic antagonists 100 micromolar, antibody 1/50
Method: as §1
Afterwards, the cells were cultured in presence of several antagonists of the NK1 receptor.
In each case it was determined the presence or absence of the AKT protein effector downstream in the PI3 Kinases pathway.
To determine the presence of the AKT protein in the different cultures Western Blot technique was performed (following the description in example 1-Western Blot section), but using as primary antibody with reference: Akt (pan) (11E7) Rabbit mAb (4685, Cell Signalling).
The antibody against NK1 receptor (Table 26) was used at 1/50 concentration. The percentages of inhibition are expressed in percentage of variation in relation to control ± standard deviation.

[5] = system: Thyroid carcinoma (follicular carcinoma); experiment: Inhibition of primary tumor cell cultures vs Kras mutation (Example 2); format: cell-based, human; details: Homo sapiens, 100 micromolar, read-out: Percentage of inhibition of cell cultures
Method: (§8) To obtain tumor cells from human primary tumors we used the method described in De Bari et al. (De Bari et al. 2001). Briefly, small pieces of the tumors were digested into a hyaluronidase solution (Sigma-Aldrich, USA) at a concentration of 1 mg/ml during 15 minutes at 37°C, and then they were treated with 6 mg/ml of collagenase type IV (Invitrogen) during 2 hours at 37°C. Consecutively, cells were washed, and resuspended in the DMEM culture medium with high concentration of glucose (Dulbecco's Modified Eagle's Medium, Invitrogen) supplemented with 1% of antibiotics-antimycotics (Invitrogen) and with 1% of sodium pyruvate (Invitrogen), and the cells were seeded in culture slides at a concentration of 10.000 cells per square centimeter. When cells reached confluence, the adherent cells were separated using sterile trypsin at 0,5% (Invitrogen) and they were used among passages 3 and 9. For the assays shown next, tumor cells were seeded on slides at a concentration of 25.000 cells per well. A total of 6 wells containing the tumor cells were used as survival control. […] All the cultures were kept during 48 hours and later on recollected for their analysis.
as §2, §3, §4

[6] = system: Endometrium carcinoma; experiment: cells; details: Homo sapiens, 1 micromolar
Method: as §5, §6, §7

[7] = system: Prostate carcinoma; experiment: Inhibition of primary tumor cell cultures vs Kras mutation (Example 2); format: cell-based, human; details: Homo sapiens, 100 micromolar, read-out: Percentage of inhibition of cell cultures
Method: as §5, §2, §3
(§9) The percentages of inhibition are expressed in percentage of variation in relation to control ± standard deviation.

[8] = system: Leukemia B; experiment: Inhibition of primary tumor cell cultures (48 hours) vs NK1 receptor immunostaining (Example 1); format: cell-based; details: Homo sapiens, 1 micromolar, read-out: Percentage of inhibition of cell cultures
Method: as §5, §6, §7

[9] = system: Myeloma; experiment: as above; format: cell-based; details: Homo sapiens, 1 micromolar, read-out: Percentage of inhibition of cell cultures
Method: as §5, §6, §7

[10] = system: Lung carcinoma (non small cell lung carcinoma); experiment: Inhibition of primary tumor cell cultures vs Kras mutation (Example 2); format: cell-based, human; details: Homo sapiens, 100 micromolar, read-out: Percentage of inhibition of cell cultures
Method: as §8, §2, §3, §4

[11] = system: Urinary bladder carcinoma (transitional cell carcinoma); experiment: as above; format: cell-based, human; details: Homo sapiens, 100 micromolar, read-out: Percentage of inhibition of cell cultures
Method: as §8, §2, §3, §4

[12] = system: Non Hodgkin Lymphoma T (diffuse T cell lymphoma); experiment: as above; format: cell-based, human; details: Homo sapiens, T-cell, 100 micromolar, read-out: Percentage of inhibition of cell cultures
Method: as §5, §2, §3, §9

[13] = system: Lung carcinoma (non small cell type); experiment: Inhibition of primary tumor cell cultures (48 hours) vs NK1 receptor immunostaining (Example 1); format: cell-based; details: Homo sapiens, 1 micromolar, read-out: Percentage of inhibition of cell cultures
Method: as §5, §6, §7

[14] = system: Hodgkin lymphoma; experiment: as above; format: cell-based; details: Homo sapiens, 1 micromolar, read-out: Percentage of inhibition of cell cultures
Method: as §5, §6, §7

[15] = system: Renal cell carcinoma; experiment: as above; format: cell-based; details: Homo sapiens, 1 micromolar, read-out: Percentage of inhibition of cell cultures
Method: as §5, §6, §7

[16] = system: Neuroblastoma; experiment: as above; format: cell-based; details: Homo sapiens, 1 micromolar, read-out: Percentage of inhibition of cell cultures
Method: as §5, §6, §7

[17] = Cases with Kras non-mutated (wild type)
[18] = NK1 receptor immunostaining Group 1 (less than 20% of the cells)
[19] = NK1 receptor immunostaining Group 2 (20-80% of the cells)
[20] = NK1 receptor immunostaining Group 3 (more than 80% of the cells)
[21] = NK1 receptor immunostaining Intensity grade 1
[22] = NK1 receptor immunostaining Intensity grade 2
[23] = NK1 receptor immunostaining Intensity grade 3

For CC(=O)N1CCN([C@H]2CCN(C(=O)N(C)[C@H](C)c3cc(C(F)(F)F)cc(C(F)(F)F)c3)[C@@H](c3ccc(F)cc3C)C2)CC1 [Casopitant], the inhibition at 1 µM [1] was 92 ± 2%, the inhibition at 100 µM ([2]; Cases with Kras mutated) was 28 ± 6% and the inhibition at 100 µM [2, 17] was 96 ± 4%. For the same compound, the inhibition at 1 µM [3, 18] was 16 ± 2%, the inhibition at 1 µM [3, 19] was 44 ± 2% and the inhibition at 1 µM [3, 20] was 95 ± 5%. The inhibition at 1 µM [3, 21] was 35 ± 4%, the inhibition at 1 µM [3, 22] was 55 ± 6% and the inhibition at 1 µM [3, 23] was 92 ± 3%. For the same compound, the “inhibition of cell proliferation” value [4] was “higher inhibition”, the inhibition at 100 µM ([5]; Cases with Kras mutated) was 26 ± 4% and the inhibition at 100 µM [5, 17] was 96 ± 4%. For the same compound, the inhibition at 1 µM ([6]; read-out: Percentage of inhibition of cell cultures, NK1 receptor immunostaining Group 1 (less than 20% of the cells)) was 16 ± 3%, the inhibition at 1 µM ([6]; read-out: Percentage of inhibition of cell cultures, NK1 receptor immunostaining Group 2 (20-80% of the cells)) was 46 ± 3% and the inhibition at 1 µM ([6]; read-out: Percentage of inhibition of cell cultures, NK1 receptor immunostaining Group 3 (more than 80% of the cells)) was 92 ± 3%. For the same compound, the inhibition at 1 µM ([6]; read-out: Percentage of inhibition of cell cultures, NK1 receptor immunostaining Intensity grade 1) was 34 ± 5%, the inhibition at 1 µM ([6]; read-out: Percentage of inhibition of cell cultures, NK1 receptor immunostaining Intensity grade 2) was 55 ± 5% and the inhibition at 1 µM ([6]; read-out: Percentage of inhibition of cell cultures, NK1 receptor immunostaining Intensity grade 3) was 94 ± 4%. For the same compound, the inhibition at 100 µM ([7]; Cases with Kras mutated) was 23 ± 3%, the inhibition at 100 µM [7, 17] was 93 ± 7% and the inhibition at 1 µM [8, 18] was 17 ± 3%. The inhibition at 1 µM [8, 19] was 46 ± 5%, the inhibition at 1 µM [8, 20] was 94 ± 6% and the inhibition at 1 µM [8, 21] was 36 ± 3%. The inhibition at 1 µM [8, 22] was 52 ± 3%, the inhibition at 1 µM [8, 23] was 92 ± 5% and the inhibition at 1 µM [9, 18] was 16 ± 3%. For the same compound, the inhibition at 1 µM [9, 19] was 47 ± 4%, the inhibition at 1 µM [9, 20] was 94 ± 5% and the inhibition at 1 µM [9, 21] was 35 ± 3%. It also gave an inhibition at 1 µM [9, 22] of 55 ± 3%, an inhibition at 1 µM [9, 23] of 93 ± 3% and an inhibition at 100 µM ([10]; Cases with Kras mutated) of 25 ± 5%. It also gave an inhibition at 100 µM [10, 17] of 95 ± 5%, an inhibition at 100 µM ([11]; Cases with Kras mutated) of 25 ± 4% and an inhibition at 100 µM [11, 17] of 95 ± 6%. It also gave an inhibition at 100 µM ([12]; Cases with Kras mutated) of 26 ± 4%, an inhibition at 100 µM [12, 17] of 96 ± 5% and an inhibition at 1 µM [13, 18] of 10 ± 2%. It also gave an inhibition at 1 µM [13, 19] of 46 ± 2%, an inhibition at 1 µM [13, 20] of 92 ± 5% and an inhibition at 1 µM [13, 21] of 32 ± 4%. For the same compound, the inhibition at 1 µM [13, 22] was 54 ± 4%, the inhibition at 1 µM [13, 23] was 93 ± 3% and the inhibition at 1 µM [14, 18] was 15 ± 2%. For the same compound, the inhibition at 1 µM [14, 19] was 47 ± 4%, the inhibition at 1 µM [14, 20] was 95 ± 4% and the inhibition at 1 µM [14, 21] was 34 ± 5%. The inhibition at 1 µM [14, 22] was 54 ± 4%, the inhibition at 1 µM [14, 23] was 92 ± 4% and the inhibition at 1 µM [15, 18] was 16 ± 4%. It also gave an inhibition at 1 µM [15, 19] of 46 ± 3%, an inhibition at 1 µM [15, 20] of 91 ± 5% and an inhibition at 1 µM [15, 21] of 34 ± 2%. For the same compound, the inhibition at 1 µM [15, 22] was 55 ± 5%, the inhibition at 1 µM [15, 23] was 91 ± 4% and the inhibition at 1 µM [16, 18] was 16 ± 2%. It also gave an inhibition at 1 µM [16, 19] of 45 ± 4%, an inhibition at 1 µM [16, 20] of 94 ± 4% and an inhibition at 1 µM [16, 21] of 35 ± 4%. For the same compound, the inhibition at 1 µM [16, 22] was 55 ± 5% and the inhibition at 1 µM [16, 23] was 94 ± 4%.
